Like-named read-outs stand apart in the source and are kept apart here. Blank lines part the entries; values can stand above or below the compound they belong to.
Legend:
[1] = values taken from reference 31, cited from earlier work
[2] = Density (2.0 mL volumetric tube, weighing by difference); format: physicochemical; conditions: 23° C.
Description: (§1) The densities of the ionic liquids or, more correctly, […] (used synonymously except as indicated otherwise explicitly or by context) was determined at 23° C. by placing 2.0 mL of the ionic liquid in a 2.0 mL volumetric tube and weighing by difference. The melting points of the ionic liquids were determined using a Perkin Elmer Pyris 1 Differential Scanning calorimeter (Boston, Mass.). Typical methods involved using a 10° C./min temperature ramp to determine and identify the first and second order thermal transitions. […] For solid compounds, the melting points were verified using a capillary melting point apparatus. Refractive index measurements were conducted at 23° C. using a Bausch & Lomb Abbe-3L refractometer.

[3] = Refractive index (Abbe-3L refractometer); format: physicochemical; conditions: 23° C.
Description: as §1

[4] = Solvation interaction parameters by inverse gas-liquid chromatography (Abraham solvation model); format: physicochemical
Description: The preparation of the capillary columns for inverse gas-liquid chromatographic analysis was performed using a previously described procedure.^31 All capillary columns had efficiencies between 2100 to 2500 plates/meter. Characterization of the capillary columns and probe molecule descriptions are listed in supplemental information. Multiple linear regression analysis (MLRA) and statistical calculations were performed using the program Analyse-it (Microsoft, USA).
We have previously reported that the Abraham solvation model, a linear free energy approach that utilizes inverse gas-liquid chromatography to describe the solvation properties of a liquid, can be used to characterize room temperature ionic liquids.^31 Described by equation 1, the model provides the so-called “interaction parameters” (r, s, a, b, l) by using multiple linear regression analysis to fit the retention factor (k, determined chromatographically) to the solute descriptors (R2, π2^H, α2^H, β2^H, log L^16) for a wide variety of probe solute molecules. […] The solvation properties of four dicationic ionic liquids (see Table 4) were evaluated and the interaction parameters compared to those obtained for their traditional monocationic analogues 1-butyl-3-methylimidazolium and 1-butyl-1-methylpyrrolidinium ionic liquids.
Previously we characterized a large number of room temperature ionic liquids in terms of multiple solvation interactions using the solvation parameter model, shown in equation 3.^44 log k=c+rR2+sπ2^H+aα2^H+bβ2^H+l log L^16 [3] This approach utilizes inverse gas-liquid chromatography and allows the use of a large number of probe molecules to deconvolute solute retention in terms of the type and magnitude of individual solvation interactions. The solute descriptors (R2, π2^H, α2^H, β2^H, log L^16) from Equation 3 are obtained from the literature for many probe molecules containing a variety of functional groups.^45 The retention factor is determined chromatographically. The solute descriptors and retention factors are subjected to multiple linear regression analysis to obtain the interaction parameter coefficients (r, s, a, b, l), which ultimately characterize the stationary phase: r is the ability of the diionic liquid containing-stationary phase to interact with π and n electrons of the solute, s is a measure of the dipolarity/polarizability of the diionic liquid containing-stationary phase, a defines the diionic liquid containing-stationary phase hydrogen bond basicity, b is a measure of the hydrogen bond acidity, and/refers to the ability of the diionic liquid containing-stationary phase to separate adjacent members of a homologous series.^46
Test solutes used to determine interaction parameters and solvation thermodynamics were dissolved in dichloromethane. A Hewlett-Packard model 5890 gas chromatograph and a Hewlett-Packard 6890 series integrator were used for all separations. Split injection and flame ionization detection were utilized with injection and detection temperatures of 250° C. Helium was used as the carrier gas with a column inlet pressure of 3.1 psi and flow rate of 1.0 mL/min. Methane was used to determine the dead volume of the column. Multiple linear regression analysis and statistical calculations were performed using the program Analyze-it (Microsoft).

Compound: CCCC[N+]1(C)CCCC1.O=S(=O)([N-]S(=O)(=O)C(F)(F)F)C(F)(F)F [BMPY—NTf2, 1-butyl-1-methylpyrrolidinium bis[(trifluoromethylsulfonyl)imide]]
a (hydrogen bond basicity) ([1]; 40° C.): 2.08
b (hydrogen bond acidity) ([1]; 40° C.): 0.16
c (interaction parameter table, constant) ([1]; 40° C.): −2.78
l (dispersion forces) ([1]; 40° C.): 0.68
r (interaction via nonbonding and π-electrons) ([1]; 40° C.): 0
s (dipolarity/polarizability) ([1]; 40° C.): 1.69
a (hydrogen bond basicity) ([1]; 70° C.): 1.78
b (hydrogen bond acidity) ([1]; 70° C.): 0
c (interaction parameter table, constant) ([1]; 70° C.): −2.80
l (dispersion forces) ([1]; 70° C.): 0.56
r (interaction via nonbonding and π-electrons) ([1]; 70° C.): 0
s (dipolarity/polarizability) ([1]; 70° C.): 1.53
a (hydrogen bond basicity) ([1]; 100° C.): 1.55
b (hydrogen bond acidity) ([1]; 100° C.): 0
c (interaction parameter table, constant) ([1]; 100° C.): −2.92
l (dispersion forces) ([1]; 100° C.): 0.48
r (interaction via nonbonding and π-electrons) ([1]; 100° C.): 0
s (dipolarity/polarizability) ([1]; 100° C.): 1.44

Compound: C[n+]1ccn(CCCCCCn2cc[n+](C)c2)c1.F[B-](F)(F)F.F[B-](F)(F)F [C6(mim)2-BF4, 1,6-di(3-methylimidazolium)hexane di-tetrafluoroborate]
Miscibility with Heptane: Immiscible
Miscibility with Water: Miscible

Compound: C=Cn1cc[n+](CCCCCCCCC[n+]2ccn(C=C)c2)c1.O=S(=O)([N-]S(=O)(=O)C(F)(F)F)C(F)(F)F.O=S(=O)([N-]S(=O)(=O)C(F)(F)F)C(F)(F)F [C9(vim)2-NTf2]
Density [2]: 1.47 g/mL
Refractive Index [3]: 1.457

Compound: Cc1n(C)cc[n+]1CCC[n+]1ccn(C)c1C.[Br-].[Br-] [C3(m2im)2-Br, 1,3-di(2,3-dimethylimidaolium)propane di-bromide]
Miscibility with Heptane: Immiscible
Miscibility with Water: Miscible

Compound: Cc1n(C)cc[n+]1CCCCCCCCC[n+]1ccn(C)c1C.[Br-].[Br-] [C9(m2im)2-Br, 1,9-di(2,3-dimethylimidazolium)nonane di-bromide]
Miscibility with Heptane: Immiscible
Miscibility with Water: Miscible

Compound: C[N+]1(CCC[N+]2(C)CCCC2)CCCC1.O=S(=O)([N-]S(=O)(=O)C(F)(F)F)C(F)(F)F.O=S(=O)([N-]S(=O)(=O)C(F)(F)F)C(F)(F)F [C3(mpy)2-NTf2, 1,3-di(methylpyrrolidinium)propane di-bis[(trifluoromethyl)sulfonyl]imidate]
Miscibility with Heptane: Immiscible
Miscibility with Water: Immiscible

Compound: C[n+]1ccn(CCCCCCn2cc[n+](C)c2)c1.F[P-](F)(F)(F)(F)F.F[P-](F)(F)(F)(F)F [C6(mim)2-PF6, 1,6-di(3-methylimidazolium)hexane di-hexafluorophosphate]
Miscibility with Heptane: Immiscible
Miscibility with Water: Immiscible

Compound: C[n+]1ccn(CCCCn2cc[n+](C)c2)c1.O=S(=O)([N-]S(=O)(=O)C(F)(F)F)C(F)(F)F.O=S(=O)([N-]S(=O)(=O)C(F)(F)F)C(F)(F)F [C4(mim)2-NTf2]
a (hydrogen bond basicity) ([4]; 40° C.): 2.11
b (hydrogen bond acidity) ([4]; 40° C.): 0.50
c (interaction parameter table, constant) ([4]; 40° C.): −2.94
l (dispersion forces) ([4]; 40° C.): 0.56
r (interaction via nonbonding and π-electrons) ([4]; 40° C.): 0.25
s (dipolarity/polarizability) ([4]; 40° C.): 2.01
a (hydrogen bond basicity) ([4]; 70° C.): 1.77
b (hydrogen bond acidity) ([4]; 70° C.): 0.45
c (interaction parameter table, constant) ([4]; 70° C.): −2.91
l (dispersion forces) ([4]; 70° C.): 0.44
r (interaction via nonbonding and π-electrons) ([4]; 70° C.): 0.22
s (dipolarity/polarizability) ([4]; 70° C.): 1.78
a (hydrogen bond basicity) ([4]; 100° C.): 1.57
b (hydrogen bond acidity) ([4]; 100° C.): 0.33
c (interaction parameter table, constant) ([4]; 100° C.): −3.06
l (dispersion forces) ([4]; 100° C.): 0.37
r (interaction via nonbonding and π-electrons) ([4]; 100° C.): 0.20
s (dipolarity/polarizability) ([4]; 100° C.): 1.69

Compound: Cn1cc[n+](CCCCCCCCC[n+]2ccn(C)c2)c1.F[P-](F)(F)(F)(F)F.F[P-](F)(F)(F)(F)F [C9(mim)2-PF6, 1,9-di(3-methylimidazolium)nonane di-hexafluorophosphate]
Miscibility with Heptane: Immiscible
Miscibility with Water: Immiscible

Compound: C=Cn1cc[n+](CCCCCCCCCCC[n+]2ccn(C=C)c2)c1.O=S(=O)([N-]S(=O)(=O)C(F)(F)F)C(F)(F)F.O=S(=O)([N-]S(=O)(=O)C(F)(F)F)C(F)(F)F [C11(vim)2-NTf2]
Density [2]: 1.44 g/mL
Refractive Index [3]: 1.457

Density [2]: 1.23 g/mL
Refractive Index [3]: 1.448
Compound: 1-vinyl-3-dodecylimidazolium bis[(trifluoromethane)sulfonyl]imidate [dvim-NTf2]

Compound: C=Cn1cc[n+](CCCCCCCCCCCC[n+]2ccn(C=C)c2)c1.O=S(=O)([N-]S(=O)(=O)C(F)(F)F)C(F)(F)F.O=S(=O)([N-]S(=O)(=O)C(F)(F)F)C(F)(F)F [C12(vim)2-NTf2]
Density [2]: 1.42 g/mL
Refractive Index [3]: 1.458

Compound: C[N+]1(CCCCCCCCC[N+]2(C)CCCC2)CCCC1.F[P-](F)(F)(F)(F)F.F[P-](F)(F)(F)(F)F [C9(mpy)2-PF6, 1,9-di(methylpyrrolidinium)nonane di-hexafluorophosphate]
Miscibility with Heptane: Immiscible
Miscibility with Water: Immiscible

Density [2]: 1.36 g/mL
Refractive Index [3]: 1.443
Compound: 1-vinyl-3-hexylimidazolium bis[(trifluoromethane)sulfonyl]imidate [hvim-NTf2]

Compound: Cc1n(C)cc[n+]1CCC[n+]1ccn(C)c1C.F[P-](F)(F)(F)(F)F.F[P-](F)(F)(F)(F)F [C3(m2im)2-PF6, 1,3-di(2,3-dimethylimidazolium)propane di-hexafluorophosphate]
Miscibility with Heptane: Immiscible
Miscibility with Water: Immiscible

Compound: CCCC[N+]1(CCCCCCCCC[N+]2(CCCC)CCCC2)CCCC1.F[P-](F)(F)(F)(F)F.F[P-](F)(F)(F)(F)F [C9(bpy)2-PF6, 1,9-di(butylpyrrolidinium)nonane di-hexafluorophosphate]
Miscibility with Heptane: Immiscible
Miscibility with Water: Immiscible

Density [2]: 1.28 g/mL
Refractive Index [3]: 1.445
Compound: 1-vinyl-3-nonylimidazolium bis[(trifluoromethane)sulfonyl]imidate [nvim-NTf2]

Compound: Cc1n(C)cc[n+]1CCC[n+]1ccn(C)c1C.O=S(=O)([N-]S(=O)(=O)C(F)(F)F)C(F)(F)F.O=S(=O)([N-]S(=O)(=O)C(F)(F)F)C(F)(F)F [C3(m2im)2-NTf2, 1,3-di(2,3-dimethylimidazolium)propane di-bis[(trifluoromethyl)sulfonyl]imidate]
Miscibility with Heptane: Immiscible
Miscibility with Water: Immiscible

Compound: Cc1n(C)cc[n+]1CCCCCCCCC[n+]1ccn(C)c1C.F[P-](F)(F)(F)(F)F.F[P-](F)(F)(F)(F)F [C9(m2im)2-PF6, 1,9-di(2,3-dimethylimidazolium)nonane di-hexafluorophosphate]
Miscibility with Heptane: Immiscible
Miscibility with Water: Immiscible

Reference: patent US8956445B2, “High stability diionic liquid salts” (Sigma-Aldrich Co., priority 2004, dated 2015)
